Values joined by “and” are separate entries in the source; they are usually repeats but may differ in a detail not shown here. Equal values may be shown once. Read-outs that look alike come from different tables or passages of the source.
Assays:
[1] = test system: serotonin (5HT) in hypothalamus; assay: Brain microdialysis: serotonin in hypothalamus; assay type: in vivo, rats; conditions: 25 mg/kg zonisamide
Text: (§1) 62 adult Sprague-Dawley male rats (Harland, Indianapolis) weighing 300-350 g were used in the following studies. The rats were quarantined for at least five days in group housing. Following the quarantine procedure, rats were maintained in individual cages. For surgical implantation with intracerebral guides, guides were inserted directly above either the hypothalamus (HT) (31 rats), or the medial prefrontal cortex (mPFC) (31 rats). Stereotaxic coordinates (Paxinos and Watson, 1986) provided below were used to position the guide cannulae and/or probes: Animals were anesthetiszed according using standard procedures. The head of each animal was shaved from the front of the eyes to the back of the skull. Shaved areas were disinfected, and the animals were placed in stereotaxic frame ear bars. The animal was aligned with the incisor bar. The animal's scalp was cut with a sharp #15 scalpel blade. If the bone began to bleed, bone wax was applied to the incision. Periosteal tissue was cleaned from the skull to the lateral ridges with a cotton swab, and clamps were used to pull the skin out of the way. The probe or guide was placed in the clamp, such that the angled outlet cannula of the microdialysis probe was angled towards the animal's tail. The target coordinates were calculated, and this point was marked on the skull. Two holes in opposing skull bones were drilled for bone anchor screws and thread screws. The dura was torn away with a sharp, pointed object. The guide cannulae were placed at the dorsal/ventral zero point. […] Using dental acrylic, the cannulae were cemented to the bone anchor screws. The cement was allowed to harden and the rodent was removed from the stereotaxic frame. The cranial and caudal aspects of the incision were sutured. The animals were allowed to recover for three to five days. Stylets in the guides were replaced with dialysis probes on the evening prior to study to allow for animal acclimation and to reestablish the integrity of the blood brain barrier. […] Rats were weighed pre-surgery, every 1-2 days post-surgery until time of microdialysis, and postmortem. Microdialysis probes used in the experiments described below were first soaked in standard Ringer's perfusion medium for 30 minutes. Inlet and outlet tubing was connected to each probe using flanged connectors. The outlet tubing was connected to a fraction collector, and the inlet was connected to and […] syringe drive. The probes were immersed in fresh Ringer's solution and flushed with Ringer's perfusion medium at a rate of 2 μl/min for 1 hour. The probe was then transferred to the intracerebral guide on the rat's skull. […] Water was added to obtain a final concentration of 0.3 mg/ml. […] Zonisamide was dissolved in DMSO. […] The final concentration of zonisamide was 7.5 mg/ml. The drug solution was maintained at 37° C. prior to injection. The rats were divided into ten test groups. Five animals were analyzed for each test group. The test groups were as follows: For the microdialysis experiments, perfusion consisted of 2 μl/min delivery of sterile standard Ringer's solution for intervals of 20 minutes. Final collection volumes were 40 μl. 30 μl samples were analyzed for each analyte: DA, NE, 5HT. 12 pre-dose samples and 12 post dose samples were collected every 20 minutes for a duration of 4 hours, both pre-dose and post-dose. Six samples from the pre-dose and post-dose collections were analyzed for norepinephrine. The remaining six samples from the pre-dose and post-dose collections were analyzed for both dopamine and serotonin. Samples were chilled to -80° C. immediately following collection. The samples were analyzed using liquid chromatography with electrochemical detection using conventional techniques. See, e.g., Huang, T., R. et al. (1994) New […] Microbore Columns for Liquid Chromatography. Current Separations 12(4): 191-195. […] Concentrations of each compound are expressed as % baseline.

[2] = test system: serotonin (5HT) in medial prefrontal cortex; assay: Brain microdialysis: serotonin in mPFC; assay type: in vivo, rats; conditions: 25 mg/kg zonisamide
Text: as §1

[3] = test system: dopamine (DA) in hypothalamus; assay: Brain microdialysis: dopamine in hypothalamus; assay type: in vivo, rats; conditions: 25 mg/kg zonisamide
Text: as §1

[4] = test system: dopamine (DA) in medial prefrontal cortex; assay: Brain microdialysis: dopamine in mPFC; assay type: in vivo, rats; conditions: 25 mg/kg zonisamide
Text: as §1

[5] = test system: norepinephrine (NE) in hypothalamus; assay: Brain microdialysis: norepinephrine in hypothalamus; assay type: in vivo, rats; conditions: 25 mg/kg zonisamide
Text: as §1

[6] = test system: norepinephrine (NE) in medial prefrontal cortex; assay: Brain microdialysis: norepinephrine in mPFC; assay type: in vivo, rats; conditions: 25 mg/kg zonisamide
Text: as §1

[7] = test system: psychotic patients (bipolar manic state, schizoaffective manic state, schizophrenic excitement); conditions: cited from earlier work; for patients showing remarkable global improvement: addition of zonisamide
[8] = patients presenting with primary obesity; cited from earlier work
carbonic anhydrase = conditions: cited from earlier work

NS(=O)(=O)Cc1noc2ccccc12 [zonisamide]
Serotonin concentrations in hypothalamus ([1]; 3 HOUR AVE): 96.664 % baseline and 96.6637 % baseline
Serotonin concentrations in hypothalamus ([1]; 40 min post dose): 139.708 % baseline
Serotonin concentrations in hypothalamus ([1]; 80 min post dose): 88.171 % baseline
Serotonin concentrations in hypothalamus ([1]; 120 min post dose): 87.586 % baseline
Serotonin concentrations in hypothalamus ([1]; 160 min post dose): 64.925 % baseline
Serotonin concentrations in hypothalamus ([1]; 200 min post dose): 98.920 % baseline
Serotonin concentrations in hypothalamus ([1]; 240 min post dose (Table 7)): 100.672 % baseline
Serotonin concentrations in hypothalamus ([1]; +220 min post dose): 100.672 % baseline
Serotonin concentrations in hypothalamus ([1]; -20 min pre dose): 133.061 % baseline
Serotonin concentrations in hypothalamus ([1]; -60 min pre dose): 79.388 % baseline
Serotonin concentrations in hypothalamus ([1]; -100 min pre dose): 87.552 % baseline
Serotonin concentrations in mPFC ([2]; 3 HOUR AVE): 77.954 % baseline and 77.9543 % baseline
Serotonin concentrations in mPFC ([2]; 40 min post dose): 96.932 % baseline
Serotonin concentrations in mPFC ([2]; 80 min post dose): 74.461 % baseline
Serotonin concentrations in mPFC ([2]; 120 min post dose): 60.557 % baseline
Serotonin concentrations in mPFC ([2]; 160 min post dose): 82.729 % baseline
Serotonin concentrations in mPFC ([2]; 200 min post dose): 89.529 % baseline
Serotonin concentrations in mPFC ([2]; 240 min post dose): 63.518 % baseline
Serotonin concentrations in mPFC ([2]; -20 min pre dose): 107.652 % baseline
Serotonin concentrations in mPFC ([2]; -60 min pre dose): 119.648 % baseline
Serotonin concentrations in mPFC ([2]; -100 min pre dose): 72.700 % baseline
Dopamine concentrations in hypothalamus ([3]; 3 HOUR AVE): 104.3854 % baseline and 105.438 % baseline
Dopamine concentrations in hypothalamus ([3]; 40 min post dose): 121.635 % baseline
Dopamine concentrations in hypothalamus ([3]; 80 min post dose): 72.946 % baseline
Dopamine concentrations in hypothalamus ([3]; 120 min post dose): 91.707 % baseline
Dopamine concentrations in hypothalamus ([3]; 160 min post dose): 66.181 % baseline
Dopamine concentrations in hypothalamus ([3]; 200 min post dose): 143.010 % baseline
Dopamine concentrations in hypothalamus ([3]; 240 min post dose): 123.012 % baseline
Dopamine concentrations in hypothalamus ([3]; -20 min pre dose): 142.394 % baseline
Dopamine concentrations in hypothalamus ([3]; -60 min pre dose): 56.252 % baseline
Dopamine concentrations in hypothalamus ([3]; -100 min pre dose): 101.354 % baseline
Dopamine concentrations in mPFC ([4]; 3 HOUR AVE): 117.183 % baseline
Dopamine concentrations in mPFC ([4]; 40 min post dose): 166.688 % baseline
Dopamine concentrations in mPFC ([4]; 80 min post dose): 86.224 % baseline
Dopamine concentrations in mPFC ([4]; 120 min post dose): 111.764 % baseline
Dopamine concentrations in mPFC ([4]; 160 min post dose): 109.627 % baseline
Dopamine concentrations in mPFC ([4]; 200 min post dose): 94.060 % baseline
Dopamine concentrations in mPFC ([4]; 240 min post dose): 134.732 % baseline
Dopamine concentrations in mPFC ([4]; -20 min pre dose): 98.672 % baseline
Dopamine concentrations in mPFC ([4]; -60 min pre dose): 87.652 % baseline
Dopamine concentrations in mPFC ([4]; -100 min pre dose): 113.677 % baseline
Norepinephrine concentrations in hypothalamus ([5]; 3 HOUR AVE): 124.221 % baseline and 124.272 % baseline
Norepinephrine concentrations in hypothalamus ([5]; 20 min post dose): 194.380 % baseline
Norepinephrine concentrations in hypothalamus ([5]; 60 min post dose): 151.267 % baseline
Norepinephrine concentrations in hypothalamus ([5]; 100 min post dose): 101.287 % baseline
Norepinephrine concentrations in hypothalamus ([5]; 140 min post dose): 99.489 % baseline
Norepinephrine concentrations in hypothalamus ([5]; 180 min post dose): 102.237 % baseline
Norepinephrine concentrations in hypothalamus ([5]; 220 min post dose): 91.722 % baseline
Norepinephrine concentrations in hypothalamus ([5]; -40 min pre dose): 111.356 % baseline
Norepinephrine concentrations in hypothalamus ([5]; -80 min pre dose): 88.184 % baseline
Norepinephrine concentrations in hypothalamus ([5]; -120 min pre dose): 100.460 % baseline
Norepinephrine concentrations in mPFC ([6]; 3 HOUR AVE): 114.112 % baseline and 114.142 % baseline
Norepinephrine concentrations in mPFC ([6]; 20 min post dose): 164.376 % baseline
Norepinephrine concentrations in mPFC ([6]; 60 min post dose): 102.033 % baseline
Norepinephrine concentrations in mPFC ([6]; 100 min post dose): 105.920 % baseline
Norepinephrine concentrations in mPFC ([6]; 140 min post dose): 102.114 % baseline
Norepinephrine concentrations in mPFC ([6]; 180 min post dose): 115.233 % baseline
Norepinephrine concentrations in mPFC ([6]; 220 min post dose): 95.176 % baseline
Norepinephrine concentrations in mPFC ([6]; -40 min pre dose): 101.451 % baseline
Norepinephrine concentrations in mPFC ([6]; -80 min pre dose): 106.249 % baseline
Norepinephrine concentrations in mPFC ([6]; -120 min pre dose): 92.300 % baseline
patients showing remarkable global improvement ([7]; all the patients (24)): Approximately 25%
patients with more than moderate global improvement ([7]; all the patients (24)): Approximately 71%
patients with more than moderate global improvement ([7]; bipolar group): ~80%
patients showing remarkable global improvement ([7]; bipolar manic patients): ~33%
weight loss [8]: significant weight loss
inhibitory effect on carbonic anhydrase (carbonic anhydrase): weak inhibitory effect

From patent publication US20060276412A1, “METHODS AND COMPOSITIONS FOR MANAGING PSYCHOTIC DISORDERS” (priority 2005, published 2006)
